Measurements published in US20220387358A1, “CERAMIDE ANALOG SACLAC MODULATES SPHINGOLIPID LEVELS AND MCL-1 SPLICING TO INDUCE APOPTOSIS IN ACUTE MYELOID LEUKEMIA” (University of Virginia Patent Foundation, priority 2019, published 2022).

What was measured:
[1] = Solubility in vehicles for i.v. drug delivery; assay type: physicochemical
OCI-AML2 cells = assay: Mitochondrial membrane potential (Muse MitoPotential Kit); assay type: cell-based, human; settings: SACLAC 5 μM; time course
Experimental: (§1) Apoptosis in cell lines was assessed after treating 2.5×10^5 cells per ml with drug or vehicle in a 48-well plate for the indicated time points and doses. Primary human AML cells were pre-incubated with SFEM for 48 hours before plating 2×10^5 cells in 24-well plates for the indicated times point and doses. Samples were stained using the Muse Annexin V & Dead Cell Kit (Millipore #MCH100105). Change in mitochondrial membrane potential in cell lines was measured with the Muse® MitoPotential Kit (#MCH100110, MilliporeSigma, Burlington, Mass., United States of America). Caspase activation was measured using the Muse® Caspase 3/7 Assay Kit (#MCH100108, MilliporeSigma, Burlington, Mass., United States of America). For rescue experiments, cells were plated at 2.5×10^4 well in a 96-well plate 24 hours after electroporation. Cells were treated with DMSO or […] for 48 hours and apoptosis was detected as stated above. All kits were used according to manufacturer's protocol. Cells were then analyzed using the Muse® Cell Analyzer (MilliporeSigma, Burlington, Massachusetts, United States of America) (35,36). Experiments included positive and negative controls for proper analysis.

KG1a cells = assay: Rescue from SACLAC-induced apoptosis by Mcl-1S knockdown; assay type: cell-based, human; settings: 10 μM SACLAC 48 hours; siRNA (100 nM) targeting MCL-1S vs scrambled
Experimental: Apoptosis in cell lines was assessed after treating 2.5×10^5 cells per ml with drug or vehicle in a 48-well plate for the indicated time points and doses. Primary human AML cells were pre-incubated with SFEM for 48 hours before plating 2×10^5 cells in 24-well plates for the indicated times point and doses. Samples were stained using the Muse Annexin V & Dead Cell Kit (Millipore #MCH100105). Change in mitochondrial membrane potential in cell lines was measured with the Muse® MitoPotential Kit (#MCH100110, MilliporeSigma, Burlington, Mass., United States of America). Caspase activation was measured using the Muse® Caspase 3/7 Assay Kit (#MCH100108, MilliporeSigma, Burlington, Mass., United States of America). For rescue experiments, cells were plated at 2.5×10^4 well in a 96-well plate 24 hours after electroporation. Cells were treated with DMSO or SACLAC for 48 hours and apoptosis was detected as stated above. All kits were used according to manufacturer's protocol. Cells were then analyzed using the Muse® Cell Analyzer (MilliporeSigma, Burlington, Massachusetts, United States of America) (35,36). Experiments included positive and negative controls for proper analysis. […]

[2] = system: primary AML patient samples; assay: Apoptosis by flow cytometry (Annexin V); assay type: cell-based, human; settings: seven patient samples; 48-hour treatment
Experimental: as §1

U937 AML cells = assay: U937 AML xenograft model in NSG mice; assay type: in vivo; settings: 5 mg/kg tail-vein, five times per week, 15 injections
Experimental: MV4-11 AML cells expressing luciferase (luc2) and YFP (39) or U937 AML cells expressing luc2 and tdTomato (#72486, Addgene, Watertown, Mass., United States of America) were used to investigate the efficacy of SACLAC in NOD-scid […] (NSG) mice (Jackson Laboratories, Bar Harbor, Me., United States of America). Maximum tolerated dose and pharmacokinetic studies were also performed to determine safety and delivery of compound.
For the U937 model, 1×10^4 luciferase and tdTomato-expressing U937 cells in […] were introduced into 6- to 8-week-old female NSG mice via tail-vein injections. After six days, engraftment was confirmed as stated above. Mice were equally randomized into two groups of five mice and treated with vehicle or SACLAC at 5 mg/kg/day five times per week for 15 total injections. […]
Red blood cells (RBC) were lysed with RBC Lysis Buffer (#420301, BioLegend, San Diego, Calif., United States of America) followed by cell surface staining with anti-human CD45 antibodies (#304014, clone HI30, BioLegend, San Diego, Calif., United States of America) and 7AAD (#420404, BioLegend, San Diego, Calif., United States of America) to detect viable human white blood cells (WBC) using an LSR II flow cytometer and BD FACS Diva software. […] Percentage of YFP, tdTomato or hCD45 positive cells was determined in FlowJo software (Becton Dickinson, Franklin Lakes, N.J., United States of America). […]

## CCCCCCCCCCCCCCC[C@@H](O)[C@H](CO)NC(=O)CCl [SACLAC, N-[(2S,3R)-1,3-dihydroxyoctadecan-2-yl]2-chloroacetamide]
[1]
  solubility in vehicles for i.v. drug delivery: low solubility
OCI-AML2 cells
  loss of mitochondrial membrane potential: occurred in parallel with positive staining for the apoptosis marker annexin V
KG1a cells
  apoptosis induction reduced by, in Mcl-1S knockdown cells: 36%
[2]
  apoptosis reached by more than half the samples: ≥ 80%
U937 AML cells
  reduction in leukemic cells in the bone marrow: up to 50%
